Results on one molecule are retold here after ChEMBL document CHEMBL4732134, “Identification of N-phenyl-3-methoxy-4-pyridinones as orally bioavailable H receptor antagonists and β-amyloid aggregation inhibitors for the treatment of Alzheimer's disease” (Eur J Med Chem, 2021).

One data set has as its target Histamine H2 receptor (Homo sapiens, UniProt P25021). Briefly: Antagonist activity at human histamine H2 receptor expressed in HEK293 cells preincubated for 5 mins followed by forskolin-stimulation and measured after 5 hrs by CRE-driven luciferase reporter gene assay. It is filed as functional, cell-based.
The target in a further data set is hERG (KCNH2) (Homo sapiens, UniProt Q12809). Briefly: Inhibition of human ERG at 3 uM by patch clamp method relative to control. Background: In patch-clamp work, channel activity is measured electrically.
In another data set the target is Histamine H4 receptor (Homo sapiens, UniProt Q9H3N8). Briefly: Antagonist activity at human histamine H4 receptor expressed in HEK293 cells preincubated for 5 mins followed by forskolin-stimulation and measured after 5 hrs by CRE-driven luciferase reporter gene assay. It is filed as functional, cell-based. In general terms: Reporter assays use an easily measured gene product as a stand-in for the process of interest.

In another data set the target is Histamine H1 receptor (Homo sapiens, UniProt P35367). Briefly: Antagonist activity at human histamine H1 receptor expressed in HEK293 cells preincubated for 5 mins followed by forskolin-stimulation and measured after 5 hrs by CRE-driven luciferase reporter gene assay. It is filed as functional, cell-based.
Histamine H1 receptor, sequence (P35367 whole entry): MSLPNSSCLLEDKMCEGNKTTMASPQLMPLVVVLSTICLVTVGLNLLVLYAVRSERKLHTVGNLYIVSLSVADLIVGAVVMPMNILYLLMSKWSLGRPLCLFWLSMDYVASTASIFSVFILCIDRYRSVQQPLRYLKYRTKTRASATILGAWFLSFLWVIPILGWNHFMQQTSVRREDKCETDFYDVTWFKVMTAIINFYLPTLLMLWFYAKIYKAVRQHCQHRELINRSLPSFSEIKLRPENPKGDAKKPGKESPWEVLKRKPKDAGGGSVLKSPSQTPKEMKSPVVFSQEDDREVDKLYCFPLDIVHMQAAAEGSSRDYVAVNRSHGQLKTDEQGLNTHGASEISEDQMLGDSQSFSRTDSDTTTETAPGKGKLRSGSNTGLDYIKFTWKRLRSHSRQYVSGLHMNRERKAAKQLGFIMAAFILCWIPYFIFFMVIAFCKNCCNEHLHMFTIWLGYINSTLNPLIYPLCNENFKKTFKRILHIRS

Histamine H4 receptor, sequence (Q9H3N8 whole entry): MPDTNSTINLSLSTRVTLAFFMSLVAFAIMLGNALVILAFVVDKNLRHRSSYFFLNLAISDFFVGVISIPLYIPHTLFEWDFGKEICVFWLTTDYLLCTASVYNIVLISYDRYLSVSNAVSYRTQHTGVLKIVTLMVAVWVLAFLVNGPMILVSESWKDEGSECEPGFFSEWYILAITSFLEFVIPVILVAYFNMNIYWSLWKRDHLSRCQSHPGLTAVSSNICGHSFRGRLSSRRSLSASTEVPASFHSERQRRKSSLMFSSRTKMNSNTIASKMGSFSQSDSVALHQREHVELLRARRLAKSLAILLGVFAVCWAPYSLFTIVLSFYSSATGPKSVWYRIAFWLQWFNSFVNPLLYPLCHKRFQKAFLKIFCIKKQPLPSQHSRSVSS
Histamine H2 receptor, sequence (P25021 whole entry): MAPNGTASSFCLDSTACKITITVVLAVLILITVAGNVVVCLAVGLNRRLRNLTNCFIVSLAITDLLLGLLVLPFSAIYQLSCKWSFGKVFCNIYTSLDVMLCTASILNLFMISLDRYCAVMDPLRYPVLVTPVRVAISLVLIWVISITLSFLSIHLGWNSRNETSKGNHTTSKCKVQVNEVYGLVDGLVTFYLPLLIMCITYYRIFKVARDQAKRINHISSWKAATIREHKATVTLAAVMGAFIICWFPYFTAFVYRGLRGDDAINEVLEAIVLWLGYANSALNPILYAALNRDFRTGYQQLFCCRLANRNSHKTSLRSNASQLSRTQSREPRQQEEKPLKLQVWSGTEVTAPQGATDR
hERG (KCNH2), sequence (Q12809 whole entry): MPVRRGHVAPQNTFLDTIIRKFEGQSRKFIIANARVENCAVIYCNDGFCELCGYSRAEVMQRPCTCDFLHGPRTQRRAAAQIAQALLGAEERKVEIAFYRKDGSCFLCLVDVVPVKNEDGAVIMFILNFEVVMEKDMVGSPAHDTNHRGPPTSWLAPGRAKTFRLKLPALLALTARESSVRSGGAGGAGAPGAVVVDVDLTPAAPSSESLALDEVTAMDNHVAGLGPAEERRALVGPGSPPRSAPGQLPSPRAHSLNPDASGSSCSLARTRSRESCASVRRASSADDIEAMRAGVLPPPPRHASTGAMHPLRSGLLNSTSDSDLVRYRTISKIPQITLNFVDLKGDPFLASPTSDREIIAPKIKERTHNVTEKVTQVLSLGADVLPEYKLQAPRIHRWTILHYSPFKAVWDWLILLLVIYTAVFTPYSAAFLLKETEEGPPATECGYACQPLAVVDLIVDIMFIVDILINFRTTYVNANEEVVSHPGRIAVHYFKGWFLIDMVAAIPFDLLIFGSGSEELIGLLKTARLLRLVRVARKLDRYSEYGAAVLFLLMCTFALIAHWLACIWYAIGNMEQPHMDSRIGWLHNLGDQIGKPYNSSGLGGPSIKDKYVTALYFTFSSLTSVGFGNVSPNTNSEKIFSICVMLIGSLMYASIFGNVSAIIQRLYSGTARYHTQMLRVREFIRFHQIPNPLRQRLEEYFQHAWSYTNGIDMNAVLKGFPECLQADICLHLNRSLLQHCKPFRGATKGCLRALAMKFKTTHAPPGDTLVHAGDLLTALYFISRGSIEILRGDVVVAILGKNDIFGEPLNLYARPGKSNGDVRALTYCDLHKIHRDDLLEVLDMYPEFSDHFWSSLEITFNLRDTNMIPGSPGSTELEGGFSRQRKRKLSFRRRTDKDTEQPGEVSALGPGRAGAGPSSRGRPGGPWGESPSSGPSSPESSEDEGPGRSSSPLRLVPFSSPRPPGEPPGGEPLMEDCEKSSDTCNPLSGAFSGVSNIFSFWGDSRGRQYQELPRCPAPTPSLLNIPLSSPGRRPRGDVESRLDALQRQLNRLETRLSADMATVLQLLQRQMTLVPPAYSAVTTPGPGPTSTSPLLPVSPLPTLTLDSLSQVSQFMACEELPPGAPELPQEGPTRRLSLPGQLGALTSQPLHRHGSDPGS

The term IC50 denotes the midpoint of a concentration-inhibition curve. A higher IC50 goes with lower potency. Broadly, the inhibition is the percentage by which the read-out fell short of the control. A low value points to a response near the control. For the molecule `COc1cn(-c2ccc(OCCCN3CCCC3)cc2)ccc1=O`, the half-maximal inhibitory concentration (IC50) against Histamine H2 receptor, at Histamine H4 receptor and against Histamine H1 receptor was > 10 µM each time. For the same molecule, the inhibition at 3 µM at hERG (KCNH2) was found to be 6.3%.
